Measured values published in patent publication US10189854B2, “Substituted pyrimidine compounds” (Grünenthal GmbH, priority 2014, dated 2019).
Counter-ions that a name gives are not always drawn.

target: human PDE4B1 (Homo sapiens (Human), UniProt Q07343); test: TR-FRET assay using the LANCE Ultra cAMP kit to determine the activity of hPDE4B1; type: biochemical; settings: IC50 inhibition of PDE4B, mean
Excerpt: TR-FRET Assay Using the LANCE® Ultra cAMP Kit to Determine the Activity of hPDE4B1
The effects of the compounds on the activity of the human PDE4B1 was quantified by measuring the production of 5′AMP from cAMP using a human recombinant enzyme expressed in Sf9 cells and the LANCE® Ultra cAMP kit, a TR-FRET detection method from PerkinElmer. The human PDE4B1 enzyme was purchased from SignalChem Lifesciences (Catalog# P92-31BG, Lot# H296-2).
The test compound, reference compound or water (control) was mixed with the enzyme (0.96 U) in a reaction buffer containing 50 mM Tris-HCl, 50 mM MgCl2 and 5 mM DTT (pH 8.5). Thereafter, the reaction was initiated by addition of 500 nM cAMP (substrate) and the mixture was incubated for 30 minutes at room temperature. For control basal measurements, the enzyme was omitted from the reaction mixture. After 30 minutes, the reaction was stopped and diluted by a factor of 100 with the reaction buffer supplemented with 500 μM IBMX. The fluorescence donor (europium chelate-labeled cAMP) and the fluorescence acceptor (anti-cAMP antibody labeled with the ULight™ dye) were then added together with 500 μM IBMX to a 10 μl aliquot. After 60 minutes, the fluorescence transfer corresponding to the amount of residual cAMP was measured at λex=337 nm, λem=620 nm and λem=665 nm using a microplate reader (PHERAstar, BMG). The enzyme activity was determined by dividing the signal measured at 665 nm by that measured at 620 nm (ratio) multiplied by 10000. The results were expressed as percent inhibition of the control enzyme activity. IC50 values (IC50=concentration causing a half-maximal inhibition of control specific activity) were derived from dose response measurements with ten different concentrations (n=3; N=1-3).
Several compounds according to the invention are tested with above mentioned assay.

human PDE4B1, sequence (Q07343 whole entry): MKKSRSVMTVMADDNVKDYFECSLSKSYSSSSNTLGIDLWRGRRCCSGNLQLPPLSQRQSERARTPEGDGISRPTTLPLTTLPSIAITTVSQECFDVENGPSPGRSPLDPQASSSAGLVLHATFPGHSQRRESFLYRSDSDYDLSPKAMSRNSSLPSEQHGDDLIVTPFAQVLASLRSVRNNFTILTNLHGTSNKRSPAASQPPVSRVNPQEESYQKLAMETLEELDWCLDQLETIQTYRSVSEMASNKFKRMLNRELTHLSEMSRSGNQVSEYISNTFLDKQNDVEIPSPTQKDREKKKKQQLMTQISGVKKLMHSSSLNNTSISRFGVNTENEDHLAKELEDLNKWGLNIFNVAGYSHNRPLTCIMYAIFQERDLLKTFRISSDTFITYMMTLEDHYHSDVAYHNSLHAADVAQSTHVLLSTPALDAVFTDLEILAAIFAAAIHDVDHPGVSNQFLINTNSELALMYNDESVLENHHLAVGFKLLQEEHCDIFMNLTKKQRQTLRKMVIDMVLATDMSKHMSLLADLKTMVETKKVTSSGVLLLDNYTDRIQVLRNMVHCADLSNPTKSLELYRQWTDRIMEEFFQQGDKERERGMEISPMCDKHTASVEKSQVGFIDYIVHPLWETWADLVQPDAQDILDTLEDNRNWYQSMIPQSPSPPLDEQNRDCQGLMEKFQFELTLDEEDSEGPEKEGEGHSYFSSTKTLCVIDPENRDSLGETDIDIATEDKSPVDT

Row | IC50 | SMILES
1 | < 0.1 µM | CN(C)c1ccnc(-c2cnc(N3CC4(CC4)c4ccc(C(=O)N5C[C@@H]6C[C@H]5CN6)cc43)nc2)c1 [Compound 302, [(1S,4S)-2,5-Diazabicyclo[2.2.1]heptan-2-yl]-[1-[5-(4-dimethylamino-pyridin-2-yl)-pyrimidin-2-yl]-spiro[1,2-dihydro-indole-3,1′-cyclopropane]-6-yl]-methanone]
2 | < 0.1 µM | Nc1ccnc(-c2cnc(N3CC4(CC4)c4ccc(C(=O)N5CC6CC5CN6)cc43)nc2)c1 (centres unmarked) [Compound 263, [1-[5-(4-Amino-pyridin-2-yl)-pyrimidin-2-yl]-spiro[1,2-dihydro-indole-3,1′-cyclopropane]-6-yl]-(2,5-diazabicyclo[2.2.1]heptan-2-yl)-methanone dihydrochloride]
3 | < 0.1 µM | O=C(c1ccc2c(c1)N(c1ncc(-c3ccccc3)cn1)CC21CC1)N1C[C@@H]2C[C@H]1CN2 [Compound 249, [(1S,4S)-2,5-Diazabicyclo[2.2.1]heptan-2-yl]-[1-(5-phenyl-pyrimidin-2-yl)-spiro[1,2-dihydro-indole-3,1′-cyclopropane]-6-yl]-methanone]
4 | < 0.1 µM | CC(C)(O)c1ccnc(-c2cnc(N3CC4(CC4)c4ccc(C(=O)N5CCOCC5)cc43)nc2)c1 [Compound 294, [1-[5-[4-(1-Hydroxy-1-methyl-ethyl)-pyridin-2-yl]-pyrimidin-2-yl]-spiro[1,2-dihydro-indole-3,1′-cyclopropane]-6-yl]-morpholin-4-yl-methanone]
5 | < 0.1 µM | CN(CCO)C(=O)c1ccc2c(c1)N(c1ncc(-c3cc([S+](C)[O-])ccn3)cn1)CC21CC1 (centres unmarked) [Compound 288, N-(2-Hydroxy-ethyl)-N-methyl-1-[5-[4-(methylsulfinyl)-pyridin-2-yl]-pyrimidin-2-yl]-spiro[1,2-dihydro-indole-3,1′-cyclopropane]-6-carboxylic acid amide]
6 | 0.1 to 1 µM | COC(=O)CN(C)C(=O)c1ccc2c(c1)N(c1ncc(-c3ccccc3F)cn1)CC21CC1 [Compound 246, 2-[[1-[5-(2-Fluorophenyl)-pyrimidin-2-yl]-spiro[1,2-dihydro-indole-3,1′-cyclopropane]-6-carbonyl]-methyl-amino]acetic acid methyl ester]
7 | < 0.1 µM | CN(CCO)C(=O)c1ccc2c(c1)N(c1ncc(-c3cc([S+](C)[O-])ccc3F)cn1)CC21CC1 (centres unmarked) [Compound 287, 1-[5-[2-Fluoro-5-(methylsulfinyl)-phenyl]-pyrimidin-2-yl]-N-(2-hydroxy-ethyl)-N-methyl-spiro[1,2-dihydro-indole-3,1′-cyclopropane]-6-carboxylic acid amide]
8 | < 0.1 µM | CN(CCO)C(=O)c1ccc2c(c1)N(c1ncc(-c3cc(S(C)(=O)=O)ccn3)cn1)CC21CC1 [Compound 289, N-(2-Hydroxy-ethyl)-N-methyl-1-[5-(4-methylsulfonyl-pyridin-2-yl)-pyrimidin-2-yl]-spiro[1,2-dihydro-indole-3,1′-cyclopropane]-6-carboxylic acid amide]
9 | < 0.1 µM | CN(CC(N)=O)C(=O)c1ccc2c(c1)N(c1ncc(-c3cc(C4CC4)ccn3)cn1)CC21CC1 [Compound 337, N-(Carbamoyl-methyl)-1-[5-(4-cyclopropyl-pyridin-2-yl)-pyrimidin-2-yl]-N-methyl-spiro[1,2-dihydro-indole-3,1′-cyclopropane]-6-carboxylic acid amide]
10 | < 0.1 µM | CC(=O)Nc1ccnc(-c2cnc(N3CC4(CC4)c4ccc(C(=O)N5C[C@@H]6C[C@H]5CN6)cc43)nc2)c1 [Compound 338, N-[2-[2-[6-[(1S,4S)-2,5-Diazabicyclo[2.2.1]heptane-2-carbonyl]-spiro[1,2-dihydro-indole-3,1′-cyclopropane]-1-yl]-pyrimidin-5-yl]-pyridin-4-yl]-acetamide]
11 | < 0.1 µM | COc1cc(OC)nc(-c2cnc(N3CC4(CC4)c4ccc(C(=O)N(C)CCO)cc43)nc2)c1 [Compound 328, 1-[5-(4,6-Dimethoxy-pyridin-2-yl)-pyrimidin-2-yl]-N-(2-hydroxy-ethyl)-N-methyl-spiro[1,2-dihydro-indole-3,1′-cyclopropane]-6-carboxylic acid amide]
